Measurements taken from patent US12012417B2, “N-substituted tetrahydrothienopyridine derivatives and uses thereof” (NOVARTIS AG, priority 2018, dated 2024).
Where two headings read alike, the source gives them in different places.

How the values were obtained:
[1] = tested on: Dengue 1 virus MY97-10245; experiment: High-content imaging cell-based flavivirus immunodetection (HCl-CFI) assay, Dengue 1; details: Dengue virus, A549, 48 h, read-out: Dengue 1 virus MY97-10245 in A549 using HCl [Inhibitor/IC50] Qualified AC50
[2] = tested on: Dengue 2 virus MY97-10340; experiment: High-content imaging cell-based flavivirus immunodetection (HCl-CFI) assay, Dengue 2; details: Dengue virus, A549, 48 h
Experimental: High-Content Imaging Cell-Based Flavivirus Immunodetection (HCl-CFI) Assay
A549 cells (7×10^3 cells per well) in a 384-well plate were infected with the DENV-2 (MY97-10340) strain at an MOI of 0.3. The cells were then treated with 3-fold, 10-point serial dilutions of test compound. After 48 h, the cells were fixed with paraformadehyde, and the viral E protein detected with 4G2 antibody labeled with Dylight™ 488 (GenScript). Cell nuclei were stained with Draq5 (Pierce/Thermo), and images were taken on the Opera imaging system (Perkin Elmer). A dose-response curve was plotted to calculate the effective concentration of compound needed to reduce expression of E protein by 50% (EC50) using GraphPad Prism.
The resulted EC50 values are summarized in Table 1 below: ±≥1 μM; 1 μM>++≥0.1 μM; 0.1 μm>+++

[3] = tested on: Dengue 3 virus MY05-34640-WT-C6/36; experiment: High-content imaging cell-based flavivirus immunodetection (HCl-CFI) assay, Dengue 3; details: Dengue virus, A549, 48 h, read-out: Dengue 3 virus MY05-34640-WT-C6/36 in A549 using HCl [Inhibitor/IC50] Qualified AC50
[4] = tested on: Dengue 4 virus MY01-22713; experiment: High-content imaging cell-based flavivirus immunodetection (HCl-CFI) assay, Dengue 4; details: Dengue virus, A549, 48 h
[5] = read-out: Dengue 2 virus MY97-10340 in A549 using HCl [Inhibitor/IC50] Qualified AC50, A549 cells, MOI 0.3, 48 h, viral E protein expression
[6] = read-out: Dengue 4 virus MY01-22713 in A549 using HCl [Inhibitor/IC50] Qualified AC50, A549 cells, 48 h, viral E protein expression

Row | Structure (SMILES) | EC50 [1] | EC50 [2, 5] | EC50 [3] | EC50 [4, 6] | EC50 ([2]; read-out: Dengue 2 virus MY97-10340 in A549 using HCl [Inhibitor/IC50] Qualified AC50) | EC50 ([4]; read-out: Dengue 4 virus MY01-22713 in A549 using HCl [Inhibitor/IC50] Qualified AC50)
1 | CS(=O)(=O)Cc1ccc(CC(=O)Nc2sc3c(c2C#N)CN(Cc2cccc(F)c2)CC3)cc1 [Example 32, N-(3-cyano-5-(3-fluorobenzyl)-4,5,6,7-tetrahydrothieno[3,2-c]pyridin-2-yl)-2-(4-((methylsulfonyl)methyl)phenyl)acetamide] | 100 to 1000 nM | 100 to 1000 nM | < 100 nM | < 100 nM | – | –
2 | N#Cc1c(NC(=O)Cc2ccc3c(c2)CCS3(=O)=O)sc2c1CN(Cc1cccc(F)c1)CC2 [Example 33, N-(3-cyano-5-(3-fluorobenzyl)-4,5,6,7-tetrahydrothieno[3,2-c]pyridin-2-yl)-2-(1,1-dioxido-2,3-dihydrobenzo[b]thiophen-5-yl)acetamide] | 100 to 1000 nM | 100 to 1000 nM | < 100 nM | < 100 nM | – | –
3 | COc1cccc(CC(=O)Nc2sc3c(c2C#N)CN(Cc2cccc(F)c2)CC3)c1OC [Example 34, N-(3-cyano-5-(3-fluorobenzyl)-4,5,6,7-tetrahydrothieno[3,2-c]pyridin-2-yl)-2-(2,3-dimethoxyphenyl)acetamide] | > 1000 nM | > 1000 nM | 100 to 1000 nM | 100 to 1000 nM | – | –
4 | COc1cc(F)cc(CC(=O)Nc2sc3c(c2C#N)CN(Cc2cccc(F)c2)CC3)c1 [Example 35, N-(3-cyano-5-(3-fluorobenzyl)-4,5,6,7-tetrahydrothieno[3,2-c]pyridin-2-yl)-2-(3-fluoro-5-methoxyphenyl)acetamide] | > 1000 nM | 100 to 1000 nM | 100 to 1000 nM | 100 to 1000 nM | – | –
5 | CS(=O)(=O)n1ccc(CC(=O)Nc2sc3c(c2C#N)CN(Cc2cccc(F)c2)CC3)c1 [Example 36, N-(3-cyano-5-(3-fluorobenzyl)-4,5,6,7-tetrahydrothieno[3,2-c]pyridin-2-yl)-2-(1-(methylsulfonyl)-1H-pyrrol-3-yl)acetamide] | > 1000 nM | 100 to 1000 nM | 100 to 1000 nM | 100 to 1000 nM | – | –
6 | CCOc1cc(CC(=O)Nc2sc3c(c2C#N)CN(Cc2cccc(F)c2)CC3)ccc1S(C)(=O)=O [Example 37, N-(3-cyano-5-(3-fluorobenzyl)-4,5,6,7-tetrahydrothieno[3,2-c]pyridin-2-yl)-2-(3-ethoxy-4-(methylsulfonyl)phenyl)acetamide] | 100 to 1000 nM | < 100 nM | < 100 nM | < 100 nM | – | –
7 | COc1cc(C#N)cc(CC(=O)Nc2sc3c(c2C#N)CN(Cc2cccc(F)c2)CC3)c1 [Example 38, N-(3-cyano-5-(3-fluorobenzyl)-4,5,6,7-tetrahydrothieno[3,2-c]pyridin-2-yl)-2-(3-cyano-5-methoxyphenyl)acetamide] | > 1000 nM | 100 to 1000 nM | 100 to 1000 nM | 100 to 1000 nM | – | –
8 | COc1cc(Cl)cc(CC(=O)Nc2sc3c(c2C#N)CN(Cc2cccc(F)c2)CC3)c1 [Example 39, 2 (3 chloro-5-methoxyphenyl)-N-(3-cyano-5-(3-fluorobenzyl)-4,5,6,7-tetrahydrothieno[3,2-c]pyridin-2-yl)acetamide] | > 1000 nM | > 1000 nM | 100 to 1000 nM | 100 to 1000 nM | – | –
9 | COc1cccc(CC(=O)Nc2sc3c(c2C#N)CN(Cc2cccc(F)c2)CC3)c1F [Example 40, N-(3-cyano-5-(3-fluorobenzyl)-4,5,6,7-tetrahydrothieno[3,2-c]pyridin-2-yl)-2-(2-fluoro-3-methoxyphenyl)acetamide] | > 1000 nM | 100 to 1000 nM | 100 to 1000 nM | 100 to 1000 nM | – | –
10 | COc1cccc(CC(=O)Nc2sc3c(c2C#N)CN(Cc2cccc(F)c2)CC3)c1Cl [Example 41, 2-(2-chloro-3-methoxyphenyl)-N-(3-cyano-5-(3-fluorobenzyl)-4,5,6,7-tetrahydrothieno[3,2-c]pyridin-2-yl)acetamide] | > 1000 nM | 100 to 1000 nM | 100 to 1000 nM | 100 to 1000 nM | – | –
11 | CC1(C)CS(=O)(=O)c2ccc(CC(=O)Nc3sc4c(c3C#N)CN(Cc3cccc(F)c3)CC4)cc21 [Example 42, N-(3-cyano-5-(3-fluorobenzyl)-4,5,6,7-tetrahydrothieno[3,2-c]pyridin-2-yl)-2-(3,3-dimethyl-1,1-dioxido-2,3-dihydrobenzo[b]thiophen-5-yl)acetamide] | 100 to 1000 nM | < 100 nM | < 100 nM | < 100 nM | – | –
12 | N#Cc1c(NC(=O)Cc2ccc(S(N)(=O)=O)c(F)c2)sc2c1CN(Cc1cccc(F)c1)CC2 [Example 43, N-(3-cyano-5-(3-fluorobenzyl)-4,5,6,7-tetrahydrothieno[3,2-c]pyridin-2-yl)-2-(3-fluoro-4-sulfamoylphenyl)acetamide] | 100 to 1000 nM | < 100 nM | < 100 nM | < 100 nM | – | –
13 | COP(C)(=O)c1ccc(CC(=O)Nc2sc3c(c2C#N)CN(Cc2cccc(F)c2)CC3)cc1 (stereo not shown) [Example 44, Methyl (4-(2-((3-cyano-5-(3-fluorobenzyl)-4,5,6,7-tetrahydrothieno[3,2-c]pyridin-2-yl)amino)-2-oxoethyl)phenyl)(methyl)phosphinate] | > 1000 nM | – | 100 to 1000 nM | – | 100 to 1000 nM | 100 to 1000 nM
14 | N#Cc1c(NC(=O)Cc2ccc(S(=O)(=O)C(F)F)cc2)sc2c1CN(Cc1cccc(F)c1)CC2 [Example 45, N-(3-cyano-5-(3-fluorobenzyl)-4,5,6,7-tetrahydrothieno[3,2-c]pyridin-2-yl)-2-(4-((difluoromethyl)sulfonyl)phenyl)acetamide] | > 1000 nM | > 1000 nM | 100 to 1000 nM | 100 to 1000 nM | – | –
15 | CS(=O)(=O)Nc1ccc(CC(=O)Nc2sc3c(c2C#N)CN(Cc2cccc(F)c2)CC3)cc1 [Example 46, N-(3-cyano-5-(3-fluorobenzyl)-4,5,6,7-tetrahydrothieno[3,2-c]pyridin-2-yl)-2-(4-(methylsulfonamido)phenyl)acetamide] | 100 to 1000 nM | 100 to 1000 nM | 100 to 1000 nM | 100 to 1000 nM | – | –
16 | CN(C)S(=O)(=O)c1ccc(CC(=O)Nc2sc3c(c2C#N)CN(Cc2cccc(F)c2)CC3)cc1 [Example 47, N-(3-cyano-5-(3-fluorobenzyl)-4,5,6,7-tetrahydrothieno[3,2-c]pyridin-2-yl)-2-(4-(N,N-dimethylsulfamoyl)phenyl)acetamide] | 100 to 1000 nM | < 100 nM | < 100 nM | 100 to 1000 nM | – | –
17 | COc1cc(CC(=O)N(C)c2sc3c(c2C#N)CN(CC2CCCCC2)CC3)ccc1S(N)(=O)=O [Example 48, N-(3-cyano-5-(cyclohexylmethyl)-4,5,6,7-tetrahydrothieno[3,2-c]pyridin-2-yl)-2-(3-methoxy-4-sulfamoylphenyl)-N-methylacetamide] | > 1000 nM | > 1000 nM | > 1000 nM | > 1000 nM | – | –
18 | COc1cc(CC(=O)Nc2sc3c(c2C#N)C(C)(C)N(Cc2ccccc2)CC3)ccc1S(N)(=O)=O [Example 49, N-(5-benzyl-3-cyano-4,4-dimethyl-4,5,6,7-tetrahydrothieno[3,2-c]pyridin-2-yl)-2-(3-methoxy-4-sulfamoylphenyl)acetamide] | > 1000 nM | 100 to 1000 nM | 100 to 1000 nM | > 1000 nM | – | –
19 | COc1cc(CC(=O)Nc2sc3c(c2C#N)CN(CC2CC(F)(F)C2)CC3)ccc1S(N)(=O)=O [Example 50, N-(3-cyano-5-((3,3-difluorocyclobutyl)methyl)-4,5,6,7-tetrahydrothieno[3,2-c]pyridin-2-yl)-2-(3-methoxy-4-sulfamoylphenyl)acetamide] | 100 to 1000 nM | 100 to 1000 nM | 100 to 1000 nM | 100 to 1000 nM | – | –
20 | COc1cc(CC(=O)Nc2sc3c(c2C#N)CN(CC2CC(F)(F)C2)CC3)ccc1S(C)(=O)=O [Example 51, N-(3-cyano-5-((3,3-difluorocyclobutyl)methyl)-4,5,6,7-tetrahydrothieno[3,2-c]pyridin-2-yl)-2-(3-methoxy-4-(methylsulfonyl)phenyl)acetamide] | 100 to 1000 nM | 100 to 1000 nM | 100 to 1000 nM | 100 to 1000 nM | – | –
21 | N#Cc1c(NC(=O)Cc2ccc3c(c2)CNS3(=O)=O)sc2c1CN(CC1CC(F)(F)C1)CC2 [Example 52, N-(3-cyano-5-((3,3-difluorocyclobutyl)methyl)-4,5,6,7-tetrahydrothieno[3,2-c]pyridin-2-yl)-2-(1,1-dioxido-2,3-dihydrobenzo[d]isothiazol-5-yl)acetamide] | > 1000 nM | 100 to 1000 nM | 100 to 1000 nM | 100 to 1000 nM | – | –
22 | CC1Cc2sc(NC(=O)Cc3ccc(S(N)(=O)=O)cc3)c(C#N)c2CN1CC1CC(F)(F)C1 (stereo not shown) [Example 56, N-(3-cyano-5-((3,3-difluorocyclobutyl)methyl)-6-methyl-4,5,6,7-tetrahydrothieno[3,2-c]pyridin-2-yl)-2-(4-sulfamoylphenyl)acetamide] | > 1000 nM | 100 to 1000 nM | 100 to 1000 nM | < 100 nM | – | –
